Measured values as given in patent publication US9464057B2, “Anti-malarial agents” (MMV MEDICINES FOR MALARIA VENTURE, priority 2013, dated 2016).
Where two headings read alike, the source gives them in different places.

Legend:
[1] = tested on: multidrug-resistant P. falciparum line Dd2; assay: P. falciparum growth inhibition by 3H-hypoxanthine incorporation; type: cell-based; conditions: Plasmodium falciparum
Description: The ability of pyrazole derivatives according to the invention to kill P. falciparum parasites and/or to inhibit its proliferation is assayed through their ability to inhibit Plasmodium falciparum growth determined by 3H-hypoxanthine incorporation. The assay is derived from the method originally described by Desjardin et al., 1979, Antimicrob. Agents Chemother, 16: 710-718 which was modified. The method assesses parasite growth as reflected by incorporation of radiolabeled hypoxanthine by parasites. P. falciparum in culture are exposed to graded dilutions of test compounds for 48 h and incorporation of 3H-hypoxanthine over the last 24 h into parasite nucleic acids is determined by liquid scintillation spectroscopy. The specific method is described below: The test compounds are diluted by three-fold serial dilutions, in triplicate wells, using low hypoxanthine medium (LHM) RPMI (Roswell Park Memorial Institute medium), 1640, 0.5% Albumax, 0.2% sodium bicarbonate, 0.025M HEPES, 2 mM glutamine, 50 μg/ml Gentamicin, 2.5 μg/ml hypoxanthine, pH 7.35) in sterile flat-bottomed 96 well plates. Final volume in each well is 100 μl. Triplicate control wells contain 100 μl LHM without any inhibitor.
The mixed stage parasitized red blood cells (RBCs), containing greater than 50% ring stage parasites, are diluted to 1% parasitemia using uninfected RBCs, washed two times with LHM, and diluted to 3% hematocrit with LHM. 100 μl of diluted parasites is added to each well. Thus, the final hematocrit is 1.5% with 0.5% parasitemia at the beginning of the assay.
The plates comprising the test wells are placed in a humidified chamber, gassed with 5% CO2, 5% O2, 90% N2, and placed in a 36.5° C. incubator for 24 h. After 24 h incubation, 0.25 μCi of 3H-hypoxanthine in 20 μL LHM is added to each well. Plates are returned to the chamber, gassed, and incubated for an additional 24 h. At the end of the second 24 h incubation, plates are transferred to a −80° C. freezer and stored for a minimum of 2 h. then Plates are thawed and the lysed material is transferred to EasyTabC glass fiber filters (Perkin Elmer; PE) using a Packard Filtermate 196 Cell Harvester. Filters are dried, placed in an Omnifilter Cassette (Perkin Elmer), and 30 μl of Microscint-O-high efficiency liquid scintillation cocktail (PE) is added to each 3 well. The plates are sealed with a Top-Seal for 96 well microplates (Perkin Elmer) and counted using a Packard TopCount-1 microplate liquid scintillation counter. Results are tabulated and graphed using Prism GraphPad software to determine effective EC50 values (concentration at which 50% parasite growth inhibition occurs).

[2] = tested on: Plasmodium falciparum Pf3D70087/N9; assay: in vivo therapeutic efficacy, 4-day-test in humanized mice; set-up: species or system NOD-scidIL2Rγnull mice engrafted with human erythrocytes; conditions: single oral dose per day for four consecutive days; for ED50: 50% inhibition of blood parasitemia by flow cytometry; for ED90: 90% inhibition of blood parasitemia by flow cytometry
Description: The ability of pyrazole derivatives according to the invention to show antimalarial efficacy in vivo can be tested by using the protocols described by Jimenez-Diaz et al., 2009, Antimicrob. Agents Chemother., 53:4533-4536. The therapeutic efficacy of compounds of invention against Plasmodium falciparum Pf3D70087/N9 growing in peripheral blood of NOD-scidIL2Rγnull mice engrafted with human erythrocytes. Efficacy is assessed by administering varying amounts of single oral doses of compounds per day for four consecutive days (4-day-test) and measuring their effect on blood parasitemia by flow cytometry. This assay provides effective doses of compounds capable of inhibiting 50% (ED50) and 90% (ED90) levels of parasitemia.

[3] = tested on: field isolates of Plasmodium falciparum; assay: ex vivo parasite growth inhibition assay, field isolates of Plasmodium falciparum; type: cell-based; conditions: P. falciparum field isolates (15 isolates), read-out: Median EC50
Text: (§1) Compound 2 has also been tested against field isolates of Plasmodium falciparum (15 isolates) and Plasmodium vivax (15 isolates) using an ex vivo parasite growth inhibition assay as described in Marfurt et al., 2011, Antimicrob Agents Chemother., 55(3): 961.

[4] = tested on: field isolates of Plasmodium vivax; assay: ex vivo parasite growth inhibition assay, field isolates of Plasmodium vivax; type: cell-based; conditions: P. vivax field isolates (15 isolates), read-out: Median EC50
Text: as §1

[5] = P. falciparum Dd2, 48 h exposure, 3H-hypoxanthine incorporation over last 24 h, read-out: EC50 (concentration at which 50% parasite growth inhibition occurs)
[6] = DD2, read-out: EC50 (concentration at which 50% parasite growth inhibition occurs)

SMILES | EC50 [1, 5] | ED50 [2] | EC50 [1, 6] | ED90 [2] | EC50 [3] | EC50 [4]
C[C@@H]1CC[C@H]2[C@@H](C)C(=O)O[C@@H]3O[C@@]4(C)CC[C@@H]1[C@]32OO4 [Artemisinin, reference compound] | 12 nM |  |  |  |  | 
O=C1C(O)=C([C@H]2CC[C@H](c3ccc(Cl)cc3)CC2)C(=O)c2ccccc21 [Atovaquone, reference compound] | 1 nM |  |  |  |  | 
CCN(CC)CCCC(C)Nc1ccnc2cc(Cl)ccc12 (stereo not shown) [Chloroquine, reference compound] |  | 4.3 mg/kg per day |  |  |  | 
CC(C)c1nc2ccccc2n1CC(=O)Nc1c(-c2ccc(Cl)cc2F)c(C(F)(F)F)nn1C [Compound 1, N-(4-(4-chloro-2-fluorophenyl)-3-(trifluoromethyl)-1-methyl-1H-pyrazol-5-yl)-2-(2-isopropyl-1H-benzo[d]imidazol-1-yl)acetamide] |  | 0.53 mg/kg per day | 0.7 nM | 0.94 mg/kg per day |  | 
Cc1nn(C)c(NC(=O)Cn2c(C(C)C)nc3ccccc32)c1-c1ccc(Cl)cc1F [Compound 2, N-(4-(4-chloro-2-fluorophenyl)-1,3-dimethyl-M-pyrazol-5-yl)-2-(2-isopropyl-M-benzo[d]imidazol-1-yl)acetamide] |  | 1.7 mg/kg per day | 5.4 nM | 2.5 mg/kg per day | 15 nM | 10 nM
Cn1nc(C(F)(F)F)c(-c2ccc(F)cc2)c1NC(=O)C[C@H](N)Cc1ccc(F)cc1 [Compound 3, (R)-3-amino-N-(3-(trifluoromethyl)-4-(4-fluorophenyl)-1-methyl-1H-pyrazol-5-yl)-4-(4-fluorophenyl)butanamide] |  | 1.8 mg/kg per day | 0.2 nM | 3.0 mg/kg per day |  | 
Cc1nn(C)c(NC(=O)C[C@H](N)Cc2ccc(F)cc2)c1-c1ccc(F)cc1 [Compound 4, (R)-3-amino-4-(4-fluorophenyl)-N-(4-(4-fluorophenyl)-1,3-dimethyl-1H-pyrazol-5-yl) butanamide] |  | 3.0 mg/kg per day | 8 nM | 4.1 mg/kg per day |  | 
COc1ccc(-c2c(C(F)(F)F)nn(C)c2NC(=O)Nc2ccc(F)cc2F)cc1 [Reference 1, reference compound] | 150 nM |  |  |  |  | 
Cn1nc(C(F)(F)F)c(-c2ccc(Br)cc2)c1NC(=O)Cc1ccccc1F [Reference 2, reference compound] | 50 nM |  |  |  |  | 
